Here are results for six compounds from article PMC4741274 (Neurochemical research, 2015).

“And” between values parts separate entries of the source, which are not always exact repeats. Equal entries are not always repeated. “Also recorded” adds a separate entry of the source. Where two headings read alike, the source gives them in different places. Some results are limits rather than exact numbers.

One assay addresses α2β2 nAChR (Rattus norvegicus, UniProt P12389+P12390). Put plainly: Competition binding vs 500 pM [3H]EB, stably transfected HEK cells.
Another assay addresses nAChRs (Rattus norvegicus, UniProt P09483+P12390). The assay is classed as binding. The note with it: read-out: Ki AVG.
In a further assay the target is α3β2 nAChR (Rattus norvegicus, UniProt P04757+P12390). Description: Competition binding vs 500 pM [3H]EB, stably transfected HEK cells.
The target of assay [1] is T1, α7 nAChR (Rattus norvegicus, UniProt Q05941). Described as above.
Assay [2] has as its target T2, α2β4 nAChR (Rattus norvegicus, UniProt P12389+P12392). The assay is described as above.
Assay [3] concerns the target T3, α4β2 nAChR (Rattus norvegicus, UniProt P09483+P12390). In kind it is binding. The note with it: for Ki: read-out: Ki α4β2, vs 500pM [3H]EB, HEK cells, Mean ± SEM of three.
Assay [4] has as its system Human α4β2 nAChRs expressed in K177 cells. The note with it: 86Rb+ efflux, ref [22]; cited from earlier work.
In assay [5] the test system is IMR-32 cells (ganglionic-like α3β4 nAChRs). The note with it: 86Rb+ efflux, ref [22]; cited from earlier work.
The target of assay [6] is T4, α3β4 nAChR (Rattus norvegicus, UniProt P04757+P12392). Description: Competition binding vs 500 pM [3H]EB, stably transfected HEK cells. The note with it: for Selectivity ratio α3β4/α7: ratio of Ki in stably transfected cells.
In a further assay the target is α4β4 nAChR (Rattus norvegicus, UniProt P09483+P12392). Described as above.
A further assay has as its target rat α3β4 nAChRs (Rattus norvegicus, UniProt P04757+P12392). Put plainly: cell-based. The assay is classed as cell-based. The note with it: for Agonist activity (in words): α3β4 nAChRs, 86Rb+ efflux.
The subject of assay [7] is α4β2* nAChRs from rat forebrain tissue (FB). Description: biochemical. The note with it: Ki α3β4 transfected cells vs rat forebrain (FB) α4β2. The assay is classed as binding.
In assay [8] the target is α4β2* nAChRs from rat forebrain tissue (FB) (Rattus norvegicus, UniProt P09483+P12390). Description: biochemical. In kind it is binding.
The target of assay [9] is T3, α4β2 nAChR. Particulars: added only for comparison; ref [24]; cited from earlier work.
The target in assay [10] is T2, α2β4 nAChR. Particulars: read-out: Ki α2β4; added for comparison; ref [24]; cited from earlier work.
In assay [11] the target is T1, α7 nAChR. The note with it: read-out: Ki α7; added for comparison; ref [24]; cited from earlier work.
Assay [12] concerns the target T4, α3β4 nAChR. Particulars: cited from earlier work.
In assay [13] the test system is α4β2* nAChRs from rat forebrain tissue (FB). Particulars: cited from earlier work.
Setting [14] is: read-out: Ki α2β2, vs 500pM [3H]EB, HEK cells, Mean ± SEM of three.
The mark [15] stands for this setting: read-out: Ki α3β2, vs 500pM [3H]EB, HEK cells, Mean ± SEM of three.
The mark [16] stands for this setting: read-out: Ki α7, vs 500pM [3H]EB, HEK cells, Mean ± SEM of three.
[17] abbreviates: read-out: Ki α2β4, vs 500pM [3H]EB, HEK cells, Mean ± SEM of three.
Setting [18] is: ratio of Ki in stably transfected cells.
The mark [19] stands for this setting: read-out: Ki α3β4, vs 500pM [3H]EB, HEK cells, Mean ± SEM of three.
[20] abbreviates: read-out: Ki α4β4, vs 500pM [3H]EB, HEK cells, Mean ± SEM of three.

As usually defined, the Ki is a measure of affinity in units of concentration, obtained from inhibition or displacement. What is called EC50 is the midpoint of the concentration-response curve. Consider `c1cncc(OC[C@@H]2CCCN2)c1` [H-11MNH], for which the Ki at α2β2 nAChR (setting [14]) came out at 0.35 ± 0.09 nM; on nAChRs, 0.46 nM; on α3β2 nAChR (setting [15]), 1.3 ± 0.3 nM; at α7 nAChR [1] (setting [16]) it was 65 ± 5 nM; at α2β4 nAChR [2] (setting [17]), 76 ± 12 nM; at α4β2 nAChR [3] it was 0.39 ± 0.05 nM. The figures for the inhibition constant Ki at α3β4 nAChR [6] (setting [19]) and on α4β4 nAChR (setting [20]) were 210 ± 40 nM and 31 ± 6 nM, respectively. Besides, on α4β2 nAChR [3] (setting [18]), the “Selectivity ratio α3β4/α4β2” value was found to be 538.5. Moreover, the “Agonist/antagonist function (in words)” value in assay [4] and in [5] was “full agonists” throughout. Moreover, the EC50 in assay [4] is 4000 nM; on rat α3β4 nAChRs, 24000 ± 1000 nM. Also, at α3β4 nAChR [6], the “Selectivity ratio α3β4/α7” value came out at 3.23. Further, on rat α3β4 nAChRs, the “Relative Emax” value was 83.33% and 83.3 ± 3%. For the same compound, on rat α3β4 nAChRs, the “Agonist activity (in words)” value is listed as “full agonist with high potency; also recorded: full agonist with high efficacy”. Further, the “Selectivity ratio α3β4/α4β2*FB” value is 295.8 in assay [7] and ~ 300 in assay [7] (listed as H-11NMH).
For orientation: Emax means the maximal effect, on the per cent scale that the assay sets. In the case of `CN1CCC[C@H]1COc1cccnc1` [A-84543, 3-(1-methyl-2(S)-pyrrolidinylmethoxy)pyridine, reference compound], the Ki turned out to be 2 ± 0.3 nM on α2β2 nAChR; 12 ± 1 nM on α3β2 nAChR; 340 ± 50 nM at α7 nAChR [1]; 370 ± 40 nM at α2β4 nAChR [2]; 1900 nM at α3β4 nAChR [6]; 150 ± 10 nM on α4β4 nAChR. In [8], this compound came in with a Ki of 5.4 ± 0.6 nM. The “Selectivity ratio α3β4/α4β2” value at α4β2 nAChR [3] (setting [18]) is listed as 1,357. For the same compound, on α4β2 nAChR [3] (setting [18]), the “Selectivity ratio α7/α4β2” value is on record as 242. Besides, the “Agonist/antagonist function (in words)” value in assay [4] and in assay [5] was “full agonists” in each case. In addition, the EC50 in assay [4] was 750 nM; at rat α3β4 nAChRs, 160000 ± 40000 nM. Also, the “Selectivity ratio α3β4/α7” value on α3β4 nAChR [6] is reported as 5.58. The maximal response (Emax) at rat α3β4 nAChRs (HEK293, read-out: Relative Emax) stood at 37.5 ± 6%. For the same compound, at rat α3β4 nAChRs, the “Agonist activity (in words)” value is given as “partial agonist with low potency”. In assay [7], the “Selectivity ratio α3β4/α4β2*FB” value is given as 351.9.
Consider `c1cc(OC[C@@H]2CCCN2)ccn1` [H-11PNH], for which the Ki at α2β2 nAChR (setting [14]) was more than 10000 nM; at nAChRs it was 59200 nM; at α3β2 nAChR (setting [15]) it was more than 10000 nM; on α7 nAChR [1] (setting [16]) it was more than 10000 nM; on α2β4 nAChR [2] (setting [17]), more than 10000 nM; at α4β2 nAChR [3], more than 10000 nM. The Ki at α3β4 nAChR [6] (setting [19]) and at α4β4 nAChR (setting [20]) was more than 10000 nM each time.
On to `CN1CCCC1COc1ccccn1` (centres unmarked) [H-11ONM], for which the Ki is more than 10000 nM on α2β2 nAChR (setting [14]); 60300 nM on nAChRs; more than 10000 nM at α3β2 nAChR (setting [15]); more than 10000 nM at α7 nAChR [1] (setting [16]); more than 10000 nM on α2β4 nAChR [2] (setting [17]); more than 10000 nM at α4β2 nAChR [3]. For the same compound, the Ki on α3β4 nAChR [6] (setting [19]) and on α4β4 nAChR (setting [20]) was more than 10000 nM each time.
As to `c1cncc(OC[C@@H]2CCN2)c1` [A-85380, 3-(2(S)-azetidinylmethoxy) pyridine], the “Selectivity ratio α3β4/α4β2” value at α4β2 nAChR [9] is given as 557.14. Further, the “Selectivity ratio α7/α4β2” value at α4β2 nAChR [9] is listed as 3,000. Also, the Ki was 18 ± 4 nM at α2β4 nAChR [10] and 420 ± 50 nM on α7 nAChR [11]. Also, the “Selectivity ratio α3β4/α7” value at α3β4 nAChR [12] is reported as 0.18. Also, the “Selectivity ratio α3β4/α4β2*FB” value in assay [13] is listed as 312.
On to `c1ccc(OCC2CCCN2)nc1` (centres unmarked) [H-11ONH], for which the inhibition constant (Ki) at α2β2 nAChR (setting [14]) was more than 10000 nM; on nAChRs it was 21800 nM; on α3β2 nAChR (setting [15]) it was more than 10000 nM; at α7 nAChR [1] (setting [16]), more than 10000 nM; at α2β4 nAChR [2] (setting [17]), more than 10000 nM; on α4β2 nAChR [3], more than 10000 nM. The Ki on α3β4 nAChR [6] (setting [19]) and at α4β4 nAChR (setting [20]) was more than 10000 nM in each case.
